Drawing on the METLIN SMRT retention time set (Domingo-Almenara et al. 2019), this text covers RP-LC retention time for 59 molecules.

The series is described as follows: gradient 5% acetonitrile 3 min, to 50% in 2 min, to 85% in 15 min, held 3 min, 100 µL/min. The note with it: column: Zorbax Extend-C18 2.1 x 50 mm; eluents: water / acetonitrile, 0.1% formic acid. The essentials:
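Data were gathered over 3 months by HPLC coupled to a quadrupole time-of-flight mass spectrometer, operated in positive and negative ionization mode. Mixtures of ~100 pure standards ran on a Zorbax Extend-C18 column (2.1 × 50 mm, 1.8 μm) at 100 μL/min, with water and acetonitrile each containing 0.1% formic acid and dead and dwell volumes of 40 μL and 900 μL. Retention time was read from adduct peaks picked by computer and checked manually.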
As to `CC(C)n1ncc(NC(=O)c2ccc(F)cc2)c(N2CCOCC2)c1=O`, the RP-LC retention time stood at 883 s. As to `Cc1ccc(CNS(=O)(=O)c2cc(-c3cc(C(F)(F)F)on3)sc2C)cc1`, the RP-LC retention time came to 1230 s. With `COc1cccc(-c2nc(C3CCN(S(=O)(=O)c4ccc(C)cc4)CC3)no2)c1`, the RP-LC retention time was found to be 1150 s.

Molecule `O=c1c2sccc2n(Cc2nc(-c3ccccc3)no2)c(=O)n1-c1ccc(Cl)cc1` returned an RP-LC retention time of 1040 s. Take `COc1ccc(NC(=O)c2c(O)c3cccnc3n(-c3ccc(F)cc3)c2=O)cc1F`: the RP-LC retention time was found to be 1210 s.

For `O=S(=O)(c1cccc2nsnc12)N1CC[C@@H]2COCCN(Cc3cccnc3)[C@@H]2C1`, the RP-LC retention time worked out at 615 s. Consider `COc1ccccc1CN[C@@H]1CCCN[C@@H]1c1ccccc1`, for which the RP-LC retention time was 598 s. `COc1ccc(Cc2nc(-c3cccc(-c4ccn[nH]4)c3)no2)cc1OC`: the RP-LC retention time was determined as 830 s.

The molecule `COc1ccc(-c2nc3n(c2C(=O)Nc2nc(-c4ccccc4)cs2)CCS3(=O)=O)cc1` registered an RP-LC retention time of 1010 s. `COc1ccc(-c2nnc(N3CCC(C(=O)NCc4cccs4)CC3)o2)cc1` showed an RP-LC retention time of 767 s. `Cc1cc(S(=O)(=O)N2CCN(c3cnn4c(C)nnc4c3)CC2)ccc1F`: the RP-LC retention time was found to be 708 s. On to `Cc1ccc(CNC(=O)C2(C)CCCN(C(=O)NCc3ccccc3)C2)cc1` (centres undefined), for which the RP-LC retention time was 878 s.

`O=C(NCc1ccccc1)C1CCN(C(=O)c2cc3ccsc3n2Cc2ccc(Cl)cc2)CC1` displayed an RP-LC retention time of 1060 s.

Turning to `O=C(Cc1ccc([N+](=O)[O-])cc1)NCc1nnnn1-c1ccc(F)cc1`, the RP-LC retention time came out at 701 s. For `O=C(NCCC1=CCCCC1)c1ccc(CN2CC(=O)N3CCCCC3C2=O)cc1` (centres undefined), the RP-LC retention time was 680 s.

`Fc1ccc(C2Cn3nnc(-c4nc(-c5ccc(Cl)cc5)no4)c3CO2)cc1` (centres undefined) showed an RP-LC retention time of 1230 s. For `CCN1CCn2cc(S(=O)(=O)NCc3ccc(C)cc3)cc2C1=O`, the RP-LC retention time was found to be 716 s.

As for `COc1ccc(OC)c(NC(=O)COc2cc(C(C)(C)C)nn2-c2nc(C)cc(C)n2)c1`, the RP-LC retention time worked out at 881 s. As for `Cc1cc(C(=O)NCC23CCCC=C2NC(=O)CC3)nn1C` (centres undefined), the RP-LC retention time came out at 641 s.

As to `COc1ccc(C(O)CN2CCN(c3cccc(C)c3)CC2)cc1` (centres undefined), the RP-LC retention time amounted to 671 s.

Molecule `CC(=O)Nc1ccc(C2(C(=O)N3CCCCC3)CCC2)cc1` displayed an RP-LC retention time of 711 s. On to `Cc1cccc(NC(=O)c2ccc(N3CCCC3)nn2)n1`, for which the RP-LC retention time stood at 612 s. Consider `Cc1ccc(NC(=O)Cn2nc(N3CCCCCC3)c3ccccc3c2=O)cc1F`, for which the RP-LC retention time amounted to 1170 s. `Cc1sc(NC(=O)c2cccs2)nc1-c1ccc2c(c1)N(C)C(=O)CO2` yielded an RP-LC retention time of 942 s. `CCc1nc(-c2csc(S(=O)(=O)N3CCCC(C(=O)Nc4cccnc4)C3)c2)no1` (centres undefined) had an RP-LC retention time of 678 s. Consider `Cc1ccc(N2CC(c3nc4ccccc4n3CC(=O)N(CC(C)C)CC(C)C)CC2=O)cc1` (centres undefined), for which the RP-LC retention time was found to be 967 s.

`Cc1cc(=O)n(CC(=O)Nc2cc(C)on2)c(N2CCOCC2)n1`: the RP-LC retention time stood at 592 s. `CCOC(=O)c1oc2ccccc2c1NC(=O)C1CCCN1S(C)(=O)=O` (centres undefined): the RP-LC retention time was 796 s. Consider `CCOc1cccc(C2C(C(=O)OC(C)C)=C(C)NC3=C2C(=O)C(C(=O)OC)C(C)C3)c1` (centres undefined), for which the RP-LC retention time was 968 s. For `CCS(=O)(=O)N1CCCc2cc(C(=O)NCCC(C)C)ccc21`, the RP-LC retention time turned out to be 884 s. As to `Cc1nc2nc(-c3ccc(C(C)(C)C)cc3)nn2c(C)c1CC(=O)N1CCCCC1C` (centres undefined), the RP-LC retention time stood at 1080 s.

With `Cc1ccc(Nc2c(-c3ccccc3)nc3ccc(Br)cn23)cc1`, the RP-LC retention time was 881 s. Molecule `CCC(=O)Nc1nc(-c2ccc3c(c2)N(CC)C(=O)CO3)cs1` displayed an RP-LC retention time of 752 s. On to `CN(C)CCn1c2c(c(SCC(=O)Nc3ccccc3Cl)nc1=O)CCC2`, for which the RP-LC retention time worked out at 624 s. Consider `CCOC(=O)COc1cc(O)cc2oc(-c3ccccc3)cc(=O)c12`, for which the RP-LC retention time was 695 s. The result for `Cn1nc(C(=O)N2CCC(Oc3ccc(-c4noc(C5CC5)n4)cc3)C2)c2ccccc21` (centres undefined) reads 1050 s. The value for `CCOC(=O)C1CCN(c2ncc(C(=O)Nc3ccccc3)c(N)n2)CC1` was 705 s; that for `COc1ccc(-c2ncc(C(=O)Nc3ccc(OC)c(Cl)c3)c(-c3ccncc3)n2)cc1` was 902 s. The molecule `CCOc1ccc(-n2c(N3CCCC3)nc3cc(C(=O)OC)ccc3c2=O)cc1` came in with an RP-LC retention time of 963 s. Regarding `COc1ccc(S(=O)Cc2ccc(C(=O)NCCN(C)C)o2)cc1` (centres undefined), the RP-LC retention time came to 530 s. On to `CCOc1ccc(S(=O)(=O)N2CCC(C(=O)NC)CC2)cc1C`, for which the RP-LC retention time came out at 761 s. In the case of `Cc1cccc(NS(=O)(=O)c2cn(C(C)C)c3ncccc23)c1`, the RP-LC retention time was 892 s.

`CCCN(C)C(=O)c1ccc2c(c1)Sc1ncccc1C(=O)N2C(C)C`: the RP-LC retention time is 760 s. Take `O=C(CSc1nc2ccccc2o1)Nc1cc(C(F)(F)F)ccc1Cl`: the RP-LC retention time amounted to 891 s. The value for `CC(=O)Nc1ccccc1SC(CC(=O)c1ccco1)c1ccc2c(c1)OCO2` (centres undefined) was 858 s. The value for `COCCCNC(=O)NC1CCN(c2nc3cccnc3n(Cc3ccccc3)c2=O)CC1` was 843 s; that for `CCCc1c(C(=O)O)nnn1Cc1ccc(OC)cc1` was 710 s; that for `COc1ccc(CNC(=O)c2cn(C)nc2S(=O)(=O)N2CCSCC2)c(OC)c1` was 855 s. The result for `COCCC(=O)N1CCC(Oc2nccnc2N2CCOCC2)C1` (centres undefined) reads 613 s.

As for `O=C(Cn1cccc1-c1nnc(-c2ccccc2)o1)N1CCN(c2ccccc2F)CC1`, the RP-LC retention time is 996 s. The result for `CCc1ccc(NC(=O)Cn2nc3c(Oc4cc(C)cc(C)c4)nccn3c2=O)cc1` reads 943 s; that for `Cc1cc(C)n(-c2ccnc(N3CCC(C(=O)NC(C)c4ccc(F)cc4)CC3)n2)n1` (centres undefined), 872 s. Consider `COc1cc(-c2nc3ncccn3c2Nc2cccc(Cl)c2C)ccc1O`, for which the RP-LC retention time was 715 s. In turn, `COCCn1cc2c3c(cccc31)CN(C(=O)Nc1cc(Cl)ccc1OC)CC2` had an RP-LC retention time of 1070 s.

On to `O=S(=O)(Nc1ccc(F)cc1F)c1ccc2c(c1)-c1oncc1CO2`, for which the RP-LC retention time was 873 s. The molecule `CSc1ccc(-c2noc(Cn3c(=O)n(-c4cccc(F)c4)c(=O)c4sccc43)n2)cc1` came in with an RP-LC retention time of 1040 s. For `CCCCS(=O)(=O)c1cc2c(cc1NC(=O)Cc1cccc(F)c1)n(C)c(=O)n2C`, the RP-LC retention time worked out at 855 s.

With `COc1ccc(OC)c(-c2ccc(=O)n(CCc3nc(-c4ccc(C)cc4)no3)n2)c1`, the RP-LC retention time was 1020 s.

Take `O=C(NCC(O)C1CCCCC1)c1ccsc1` (centres undefined): the RP-LC retention time came out at 689 s.
